Reference: patent publication US20250034170A1, “SMALL MOLECULE MODULATORS OF GLUCOCEREBROSIDASE ACTIVITY AND USES THEREOF” (Vanqua Bio, Inc., priority 2021, published 2025)

target: T1, GCase (Homo sapiens, UniProt P04062); experiment: activation of GCase in a live cell PFB assay in HELA cells; format: cell-based; details: EC50 given as range classes
T1 construct: endogenous in cells; host or cells: HeLa cells
T1 sequence (P04062 40-536): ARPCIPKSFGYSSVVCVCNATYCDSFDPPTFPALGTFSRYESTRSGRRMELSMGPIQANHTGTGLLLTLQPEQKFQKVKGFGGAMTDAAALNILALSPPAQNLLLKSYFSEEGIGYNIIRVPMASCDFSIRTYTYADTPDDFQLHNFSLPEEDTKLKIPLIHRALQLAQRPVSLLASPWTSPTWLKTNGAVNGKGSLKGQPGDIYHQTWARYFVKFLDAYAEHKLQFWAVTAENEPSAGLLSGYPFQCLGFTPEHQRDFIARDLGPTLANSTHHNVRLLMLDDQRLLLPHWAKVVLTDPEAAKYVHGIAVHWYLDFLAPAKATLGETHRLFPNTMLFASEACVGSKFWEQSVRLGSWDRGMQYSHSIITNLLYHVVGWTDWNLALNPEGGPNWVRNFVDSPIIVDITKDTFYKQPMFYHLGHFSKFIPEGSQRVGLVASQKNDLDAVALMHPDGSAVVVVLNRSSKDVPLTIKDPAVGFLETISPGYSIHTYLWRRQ
Experimental: Exemplary compounds were evaluated for activation of GCase in a live cell PFB assay in HELA cells (essentially as described in Ysselstein et al., “LRRK2 kinase activity regulates lysosomal glucocerebrosidase in neurons derived from Parkinson's disease patients” Nature Communications (2019) 10:5570). […] EC50 ranges: A: <10 μM; B: >10-50 μM; C: >50-100 μM; D: >100 μM.

SMILES	EC50 [µM]
Cc1nc(N2CCC3(CC2)CCN(c2cnc4cnn(CC(F)(F)F)c4n2)C3)cc(C(F)(F)F)n1 [Cmpd 580]	10 to 50
FC(F)Cn1ncc2ncc(N3CCC4(CC3)CC(Nc3ccnc(C(F)(F)F)c3)C4)nc21 [Cmpd 229]	10 to 50
FC(F)Cn1ncc2cnc(N3CCC4(CCN(c5ccc(C(F)(F)F)nc5)C4)CC3)nc21 [Cmpd 827]	10 to 50
FC(F)Cn1ncc2ncc(N3CCC4(CCN(c5cccc(C(F)(F)F)n5)CC4)CC3)nc21 [Cmpd 809]	< 10
O=C1CC2(CCN(c3cnc4cnn(CC(F)F)c4n3)CC2)CN1c1ccc(C(F)(F)F)nc1OC(F)F [Cmpd 780]	< 10
Cc1ccc(S(=O)(=O)N2CC3(CCN(c4cnc5cnn(CC(F)F)c5n4)C3)C2)cn1 [Cmpd 416]	10 to 50
O=C1N(c2ccc(C(F)(F)F)nc2)CCC12C1CCC2CN(c2cnc3cnn(CC(F)F)c3n2)C1 (stereo not drawn) [Cmpd 799]	< 10
Cc1ccccc1C(=O)N1CC2(CCN(c3cnc4cnn(CC(F)F)c4n3)C2)C1 [Cmpd 384]	< 10
O=S(=O)(c1ccccc1C(F)(F)F)N1CC2(CCN(c3cnc4cnn(CC(F)F)c4n3)C2)C1 [Cmpd 396]	10 to 50
FC(F)(F)c1cc(N2CC3(CCN(c4nccc(-c5nncs5)n4)C3)C2)ccn1 [Cmpd 986]	< 10
Cc1ncc(N2CC3(CCN(c4ncc5c(C)nn(C6COC6)c5n4)C3)C2)c(C(F)(F)F)n1 [Cmpd 600]	50 to 100
Cc1nn(CC(F)(F)F)c2nc(N3CCC4(CCN(c5cnc(C(F)(F)F)nc5)C4)C3)cnc12 (stereo not drawn) [Cmpd 603]	10 to 50
O=C1CC2(CN1c1cnc(C(F)(F)F)cn1)C1CCC2CN(c2cnc3cnn(CC(F)F)c3n2)C1 (stereo not drawn) [Cmpd 805]	10 to 50
CCN1C(=O)N(c2ccnc(C(F)(F)F)c2)C(=O)C12CCN(c1cnc3c(C)nn(C4COC4)c3n1)CC2 [Cmpd 984]	< 10
FC(F)Cn1ncc2ncc(N3CCC4(CCCN4c4ccnc(C(F)(F)F)c4)C3)nc21 (stereo not drawn) [Compound 188, 7-[1-(2,2-difluoroethyl)-1H-pyrazolo[3,4-b]pyrazin-6-yl]-1-[2-(trifluoromethyl)pyridin-4-yl]-1,7-diazaspiro[4.4]nonane]	> 100
O=C1CC2(CN1c1ccc(C(F)(F)F)nc1)C1CCC2CN(c2cnc3cnn(CC(F)F)c3n2)C1 (stereo not drawn) [Cmpd 804]	10 to 50
Cc1cc(CN2CC3(CCN(c4cnc5cnn(CC(F)F)c5n4)CC3)CC2=O)no1 [Cmpd 398]	10 to 50
Cc1nc(N2CCC3(CC2)CCN(c2cnc4cnn(C5COC5)c4n2)C3)cc(C(F)(F)F)n1 [Cmpd 583]	> 100
Cc1nc(N2CC3(CCN(c4cnc5cnn(CC(F)F)c5n4)C3)C2)cc(C(F)(F)F)n1 [Cmpd 422]	< 10

same assay, conditions: activation of GCase, EC50 ranges

SMILES	EC50 [µM]
FC(F)(F)c1ccnc(N2CC3(CCN(c4ncc5cnn(C6COC6)c5n4)CC3)C2)c1 [Cmpd 478]	< 10
O=C1CC2(CCN(c3cnc4cnn(CC(F)F)c4n3)CC2)CN1c1nccc(C(F)(F)F)n1 [Cmpd 275]	< 10
Cc1nn(CC(F)F)c2nc(N3CCC4(CC(=O)N(c5ccnc(C(F)(F)F)c5)C4)C3)ncc12 (stereo not drawn) [Cmpd 496]	10 to 50
CCc1nn(C2COC2)c2nc(N3CCC4(CN(c5ccnc(C(F)(F)F)c5)C4)C3)ncc12 [Cmpd 1070]	< 10
FC(F)Cn1ncc2cnc(N3CCC4(CCN(c5cnc(C(F)(F)F)nc5)C4)C3)nc21 (stereo not drawn) [Cmpd 546]	10 to 50
Cc1nc(N2CCC3(CCN(c4ncc5cnn(C6COC6)c5n4)C3)C2)cc(C(F)(F)F)n1 (stereo not drawn) [Cmpd 545]	> 100
O=C1N(Cc2cncc(Cl)c2)CCC12CCN(c1cnc3cnn(CC(F)F)c3n1)CC2 [Cmpd 333]	< 10
FC(F)Cn1ncc2ncc(N3CCC4(CC3)CC(COc3ccc(C(F)(F)F)cn3)C4)nc21 [Cmpd 702]	10 to 50
Cc1nn(CC(F)F)c2nc(N3CCC4(CC3)CC(=O)N(c3cc(C(F)(F)F)ccn3)C4)ncc12 [Cmpd 302]	< 10
FC(F)Cn1ncc2ncc(N3CCCC4(CC(Oc5ccc(C(F)(F)F)cn5)C4)C3)nc21 (stereo not drawn) [Compound 28, 6-[1-(2,2-difluoroethyl)-1H-pyrazolo[3,4-b]pyrazin-6-yl]-2-{[5-(trifluoromethyl)pyridin-2-yl]oxy}-6-azaspiro[3.5]nonane]	10 to 50
Cc1cc(N2CC3(CCN(c4cnc5cnn(C6COC6)c5n4)CC3)CC2=O)nc(C(F)(F)F)n1 [Cmpd 456]	10 to 50
FC(F)Cn1ncc2ncc(N3CCCC4(CC(Oc5ccnc(C(F)(F)F)c5)C4)C3)nc21 (stereo not drawn) [Compound 13, 6-[1-(2,2-difluoroethyl)-1H-pyrazolo[3,4-b]pyrazin-6-yl]-2-{[2-(trifluoromethyl)pyridin-4-yl]oxy}-6-azaspiro[3.5]nonane]	10 to 50
Cc1nn(CC(F)F)c2nc(N3CCC4(CCN(c5cc(C(F)(F)F)ccn5)CC4)C3)cnc12 [Compound 140, 2-[1-(2,2-difluoroethyl)-3-methyl-1H-pyrazolo[3,4-b]pyrazin-6-yl]-8-[4-(trifluoromethyl)pyridin-2-yl]-2,8-diazaspiro[4.5]decane]	10 to 50
CCOc1nn(CC(F)F)c2nc(N3CCC4(CN(c5ccnc(C(F)(F)F)c5)C4)C3)cnc12 [Cmpd 937]	< 10
CC(F)(F)Cn1ncc2ncc(N3CCC4(CN(c5ccnc(C(F)(F)F)c5)C4)C3)nc21 [Cmpd 1116]	10 to 50
COc1nn(C2COC2)c2nc(N3CCC4(CC3)CC(=O)N(c3ccc(C(F)(F)F)nc3)C4)cnc12 [Cmpd 950]	> 100
O=C(c1cccc(Cl)c1)N1CC2(CCN(c3cnc4cnn(CC(F)F)c4n3)C2)C1 [Cmpd 371]	< 10
O=C1N(c2ccc(C(F)(F)F)cn2)CCCC12CN(c1cnc3cnn(CC(F)F)c3n1)C2 [Cmpd 341]	10 to 50
FC(F)Cn1ncc2ncc(N3CCCC4(CC(Oc5cnccc5C(F)(F)F)C4)C3)nc21 (stereo not drawn) [Compound 10, 6-[1-(2,2-difluoroethyl)-1H-pyrazolo[3,4-b]pyrazin-6-yl]-2-{[4-(trifluoromethyl)pyridin-3-yl]oxy}-6-azaspiro[3.5]nonane]	< 10
Cc1nc(N2CC3(CCN(c4cnc5cnn(CC(F)(F)F)c5n4)CC3)C2)cc(C(F)(F)F)n1 [Cmpd 567]	< 10
O=C1CC2(CCN(c3ncc4cnn(CC(F)F)c4n3)CC2)CN1c1cnc(C(F)(F)F)nc1 [Cmpd 916]	< 10

SMILES	EC50 [µM]
Cn1cc(N2CCC3(CCN(c4cnc5cnn(CC(F)F)c5n4)CC3)C2=O)ccc1=O [Cmpd 845]	10 to 50
O=C(c1ccc(C(F)(F)F)cn1)N1CCC2(CC1)CN(c1cnc3cnn(CC(F)F)c3n1)C2 [Cmpd 330]	10 to 50
FC(F)Cn1ncc2ncc(N3CCC4(CCN(c5ccc(C(F)(F)F)cn5)C4)C3)nc21 (stereo not drawn) [Cmpd 483]	10 to 50
O=C1CC2(CCN(c3cnc4cnn(CC(F)F)c4n3)CC2)CN1Cc1ccc(OC(F)(F)F)cc1 [Cmpd 441]	< 10
Cc1nc(N2CC3(CCN(c4ncc5cnn(CC(F)F)c5n4)CC3)C2)cc(C(F)(F)F)n1 [Cmpd 564]	< 10
FC(F)(F)c1cc(N2CCCC3(C2)CN(c2cnc4cnn(Cc5ccccc5)c4n2)C3)ccn1 [Compound 104, 2-{1-benzyl-1H-pyrazolo[3,4-b]pyrazin-6-yl}-6-[2-(trifluoromethyl)pyridin-4-yl]-2,6-diazaspiro[3.5]nonane]	10 to 50
O=C1CC2(CCN(c3cnc4cnn(CC(F)F)c4n3)CC2)CN1Cc1ccc(F)c(Cl)c1 [Cmpd 449]	< 10
O=C1CC2(CCN(c3cnc4cnn(CC(F)F)c4n3)CC2)CN1Cc1nc(C(F)(F)F)cs1 [Cmpd 368]	< 10
Cc1nc(C(F)(F)F)ncc1N1CC2(CCN(c3cnc4cnn([C@H]5CCOC5)c4n3)C2)C1 [Cmpd 656]	50 to 100
COc1cc(N2CCC3(CCN(c4cnc5cnn(CC(F)F)c5n4)CC3)C2=O)nc(C(F)(F)F)c1 [Cmpd 665]	> 100
FC(F)Cn1ncc2ncc(N3CCC4(CN(c5cnc(C(F)(F)F)cn5)C4)C3)nc21 [Cmpd 317]	10 to 50
Cc1nc(N2CC3(CCN(c4ncc5cnn(C6COC6)c5n4)CC3)C2)cc(C(F)(F)F)n1 [Cmpd 562]	10 to 50
CCn1nc(C(F)(F)F)c2ncc(N3CCC4(CN(c5cc(C(F)(F)F)nc(C)n5)C4)C3)nc21 [Cmpd 1136]	< 10
O=C1CC2(CCN(c3cnc4cnn(CC(F)F)c4n3)CC2)CCN1c1ccc(C(F)(F)F)cn1 [Cmpd 293]	10 to 50
O=C1CC2(CCN(c3cnc4cnn(CC(F)F)c4n3)CC2)CN1Cc1ccnc(OCC(F)(F)F)n1 [Cmpd 971]	< 10
FC(F)(F)c1cc(N2CC3(CCN(c4cnc5cnn([C@H]6CCOC6)c5n4)C3)C2)ccn1 [Cmpd 1092]	> 100
Cc1cc(F)cc(-n2cc(C(=O)N3CCC4(CC3)CCN(c3cc(C(F)(F)F)ccn3)C4=O)nn2)c1 [Cmpd 268]	10 to 50
CC(F)(F)c1ncc(N2CC3(CCN(c4cnc5cnn(CC(F)F)c5n4)C3)C2)cn1 [Cmpd 1088]	< 10
CC(c1ccc(C(F)(F)F)nc1)N1CC2(CCN(c3cnc4cnn(CC(F)F)c4n3)CC2)CC1=O (stereo not drawn) [Cmpd 965]	10 to 50
FC(F)Cn1ncc2ncc(N3CCC4(CCN(c5cncc(C(F)(F)F)c5)C4)CC3)nc21 [Compound 148, 8-[1-(2,2-difluoroethyl)-1H-pyrazolo[3,4-b]pyrazin-6-yl]-2-[5-(trifluoromethyl)pyridin-3-yl]-2,8-diazaspiro[4.5]decane]	< 10
